Laboratory results from patent publication US20260242739A1, “ROLE OF HEPATOCYTE-DERIVED EXTRACELLULAR MATRIX AND COAGULATION FACTORS FOR THE FATE RESTORATION AND MAINTENANCE OF HUMAN HEPATOCYTES” (UNIVERSITY OF SOUTHERN CALIFORNIA, priority 2023, published 2026).

Test system: HLCM-HHs
Assay type: cell-based, human
Details: 7 days
Procedure: As described in our previous publication (Tateno 2015), humanized liver chimeric mice (HLCM) were generated through xenotransplantation of cryopreserved or freshly isolated primary human hepatocytes (Lot:JFC, BioIVT, NY, US) into severe […] immune deficient (SCID) mice carrying a albumin enhancer/promoter-driven transgene (cDNA), urokinase type plasminogen activator, namely cDNA-uPA Tg/SCID). HLCM with blood human albumin level higher than 10 mg/mL were used for human hepatocyte isolation with two-step collagenase perfusion. The freshly isolated HLCM derived human hepatocytes (HLCM-HH) were plated on type I collagen coated culture dishes (BioCoat, Corning, NY, USA) at 1.05×10^5 cells/cm^2. […]
Total RNA was extracted with Zymo-Quick RNA micro kit (Zymo Research, CA, USA) according to the provider's protocol. […] Real-time quantitative PCR was performed with PowerUp SYBR Green Master Mix (ThermoFisher Scientific, MA, USA) and QuantStudio 5 systems (ThermoFisher Scientific) using human specific primer sets summarized in the Table 4. Relative gene expression levels were analyzed with the Delta-Dleta Ct method.

In the case of Fibrinogen, the “expression of cholangiocyte/liver progenitor cell markers, TGFB2 and ANKRD1” value (INVITROGRO HI (IH) and HCM media with or without fibrinogen 50 μg/mL) is reported as “significantly inhibited” and the “expressions of cholangiocyte/liver progenitor cell markers (TGFB1, TGFB2, ANKRD1, KRT19)” value (supplemented to fresh dHCGM at 50 μg/mL, vs dHCGM alone, qPCR) is reported as “significantly inhibited”.
